Converted amounts (≈) assume the structure as drawn. Read-outs that look alike come from different tables or passages of the source.
Experiments:
[1] = system: Acinetobacter baumanii/haemolyticus: Multidrug-resistant clinical isolate (AB-3167); experiment: MIC determination (CLSI), AB-3167; format: cell-based; settings: for MIC: Acinetobacter baumannii
In short: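 Multidrug-resistant clinical isolate AB-3167 (A. baumannii/haemolyticus) tested for minimum inhibitory concentration following CLSI dilution susceptibility standards M7-A7 and M100-S18.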

[2] = system: Escherichia coli EC-1: VOGEL, mouse virulent; experiment: MIC determination (CLSI), EC-1; format: cell-based; settings: for MIC: Escherichia coli
In short: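 E. coli Vogel, a mouse-virulent strain (EC-1), was tested. MICs were set by dilution susceptibility testing per CLSI standards M7-A7/M100-S18.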

[3] = target: Pseudomonas aeruginosa LpxC enzyme (Pseudomonas aeruginosa (strain ATCC 15692 / DSM 22644 / CIP 104116 / JCM 14847 / LMG 12228 / 1C / PRS 101 / PAO1), UniProt P47205); experiment: IC50 Assay, LpxC Enzyme from P. aeruginosa (PA LpxC Enzyme IC50); format: biochemical
In short: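 Reaction run 1 h then stopped with 1N HCl. Conversion measured by RapidFire high-throughput mass spectrometry. IC50 derived from percent conversion relative to a no-enzyme control.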

[4] = system: Klebsiella pneumoniae: Ciprofloxacin-resistant isolate, ESBL, clinical isolate (KP-3700); experiment: MIC determination (CLSI), KP-3700; format: cell-based
In short: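 MIC measured by broth dilution according to CLSI M7-A7 and M100-S18 standards. Test organism was a ciprofloxacin-resistant, ESBL-expressing clinical isolate.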

[5] = system: Pseudomonas aeruginosa UI-18: Wild-type (PA-7); experiment: MIC determination (CLSI), PA-7; format: cell-based; settings: for MIC: Pseudomonas aeruginosa
In short: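 MIC by dilution method per CLSI M7-A7 and M100-S18 guidelines. Strain: wild-type Pseudomonas aeruginosa UI-18.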

[6] = Acinetobacter baumanii/haemolyticus multidrug-resistant clinical isolate AB-3167
[7] = Escherichia coli EC-1 VOGEL, mouse virulent
[8] = P. aeruginosa LpxC enzyme, read-out: PA LpxC enzyeme IC50
[9] = Pseudomonas aeruginosa UI-18 wild-type PA-7
[10] = Table 3, read-out: PA LpxC enzyeme IC^50
[11] = Acinetobacter baumanii/haemolyticus AB-3167
[12] = Pseudomonas aeruginosa UI-18 (PA-7)
[13] = Table 1, MIC, read-out: AB-3167 (MIC)
[14] = Table 1, read-out: PA LpxC enzyeme IC50
[15] = Table 1, MIC, read-out: PA-7 (MIC)

Compound	AB-3167 MIC [1, 6]	EC-1 MIC [2, 7] [µg/mL]	IC50 [3, 8] [nM]	KP-3700 MIC [4]	PA-7 MIC [5, 9] [µg/mL]	further results
Cc1cc(-c2ccc(C#N)cc2)ccc1CCC(C)(C(=O)NO)S(C)(=O)=O (stereo not shown) [Example 161]	≧64 mg/L	1	0.725	16 µg/mL	4	
CC(=O)c1ccc(-c2ccc(CC[C@](C)(C(=O)NO)S(C)(=O)=O)cc2)cn1 [Example 190]	≧64 mg/L	4	0.246	4 µg/mL	2	
CC(CCc1ccc(OCC2CCOCC2)cc1)(C(=O)NO)S(C)(=O)=O (stereo not shown) [Example 261, N-hydroxy-2-methyl-2-(methylsulfonyl)-4-[4-(tetrahydro-2H-pyran-4-ylmethoxy)phenyl]butanamide]				≧64 mg/L		MIC ([1]; Table 3, read-out: AB-3167 MIC): ≥ 64 µg/mL; MIC ([2]; read-out: EC-1 MIC): ≥ 64 µg/mL; IC50 [3, 10]: 4.93 nM; MIC ([5]; Table 3, read-out: PA-7 MIC): 32 µg/mL (≈ 83 µM)
CC(CCc1ccc(OCc2c(F)cc(F)cc2F)cc1)(C(=O)NO)S(C)(=O)=O (stereo not shown) [Example 293, N-hydroxy-2-methyl-2-(methylsulfonyl)-4-{4-[(2,4,6-trifluorobenzyl)oxy]phenyl}butanamide]				32 µg/mL		MIC ([1]; Table 3, read-out: AB-3167 MIC): 32 µg/mL (≈ 74.2 µM); MIC ([2]; read-out: EC-1 MIC): 4 µg/mL (≈ 9.27 µM); IC50 [3, 10]: 0.955 nM; MIC ([5]; Table 3, read-out: PA-7 MIC): 4 µg/mL (≈ 9.27 µM)
CC(CCc1ccc(-c2ccc(OCCCCO)cc2)cc1)(C(=O)NO)S(C)(=O)=O (stereo not shown) [Example 136]	≧64 mg/L	0.125	0.205	1 µg/mL	1	
C[C@@](CCc1ccc(-c2ccc(OCC(=O)N3CC(O)C3)cc2)cc1)(C(=O)NO)S(C)(=O)=O [Example 223]			0.507	32 µg/mL		AB-3167 MIC [1, 11]: ≧64 mg/L; EC-1 MIC ([2]; Escherichia coli EC-1): 16 µg/mL; PA-7 MIC [5, 12]: 8 µg/mL
CC(CCc1ccc(OCc2nc(-c3cccc(Cl)c3)no2)cc1)(C(=O)NO)S(C)(=O)=O (stereo not shown) [Example 298, 4-(4-{[3-(3-chlorophenyl)-1,2,4-oxadiazol-5-yl]methoxy}phenyl)-N-hydroxy-2-methyl-2-(methylsulfonyl)butanamide]				32 µg/mL		MIC ([1]; Table 3, read-out: AB-3167 MIC): 16 µg/mL (≈ 33.3 µM); MIC ([2]; read-out: EC-1 MIC): 16 µg/mL (≈ 33.3 µM); IC50 [3, 10]: 1.66 nM; MIC ([5]; Table 3, read-out: PA-7 MIC): 32 µg/mL (≈ 66.7 µM)
C[C@@](CCc1ccc(-c2ccc(OCC(=O)N3CCC(O)CC3)cc2)cc1)(C(=O)NO)S(C)(=O)=O [Example 221]			0.533	≧64 mg/L		AB-3167 MIC [1, 11]: ≧64 mg/L; EC-1 MIC ([2]; Escherichia coli EC-1): 16 µg/mL; PA-7 MIC [5, 12]: 16 µg/mL
CC(CCc1ccc(-c2cccc(F)c2)cc1)(C(=O)NO)S(C)(=O)=O (stereo not shown) [Example 42]	≧64 mg/L	2	0.335	4 µg/mL	0.5	
CC(CCc1ccc(OCc2c(F)cccc2F)cc1)(C(=O)NO)S(C)(=O)=O (stereo not shown) [Example 258, 4-{4-[(2,6-difluorobenzyl)oxy]phenyl}-N-hydroxy-2-methyl-2-(methylsulfonyl)butanamide]				16 µg/mL		MIC ([1]; Table 3, read-out: AB-3167 MIC): 32 µg/mL (≈ 77.4 µM); MIC ([2]; read-out: EC-1 MIC): 2 µg/mL (≈ 4.84 µM); IC50 [3, 10]: 0.599 nM; MIC ([5]; Table 3, read-out: PA-7 MIC): 2 µg/mL (≈ 4.84 µM)
CC(CCc1ccc(-c2ccc(F)cc2)c(O)c1)(C(=O)NO)S(C)(=O)=O (stereo not shown) [Example 21, 4-(4′-Fluoro-2-hydroxybiphenyl-4-yl)-N-hydroxy-2-methyl-2-(methylsulfonyl)butanamide]				≧64 mg/L		MIC [1, 13]: ≥ 64 µg/mL; MIC ([2]; read-out: EC-1: (MIC)): 16 µg/mL (≈ 41.9 µM); IC50 [3, 14]: 15.4 nM; MIC [5, 15]: 16 µg/mL (≈ 41.9 µM)
CC(CCc1ccc(-c2ccc(Cl)cc2)cc1)(C(=O)NO)S(C)(=O)=O (stereo not shown) [Example 44]	16 µg/mL	0.5	0.0669	1 µg/mL	0.5	
CC(CCc1ccc(-c2cccc(F)c2F)cc1)(C(=O)NO)S(C)(=O)=O (stereo not shown) [Example 62]	16 µg/mL	0.5	0.185	16 µg/mL	0.25	
CC(C)CCc1noc(COc2ccc(CCC(C)(C(=O)NO)S(C)(=O)=O)cc2)n1 (stereo not shown) [Example 272, N-hydroxy-2-methyl-4-(4-{[3-(3-methylbutyl)-1,2,4-oxadiazol-5-yl]methoxy}phenyl)-2-(methylsulfonyl)butanamide]				≧64 mg/L		MIC ([1]; Table 3, read-out: AB-3167 MIC): ≥ 64 µg/mL; MIC ([2]; read-out: EC-1 MIC): 32 µg/mL (≈ 72.8 µM); IC50 [3, 10]: 1.54 nM; MIC ([5]; Table 3, read-out: PA-7 MIC): ≥ 64 µg/mL
CC(CCc1ccc(-c2ccc(F)c(Cl)c2)cc1)(C(=O)NO)S(C)(=O)=O (stereo not shown) [Example 104]	2 µg/mL	0.5	0.127	2 µg/mL	1	
CC(CCc1ccc(-c2ccc(O)c(F)c2)cc1)(C(=O)NO)S(C)(=O)=O (stereo not shown) [Example 138]	32 µg/mL	2	0.335	8 µg/mL	1	
C[C@@](CCc1ccc(-c2ccc(OCCCN3CCCCC3)cc2)cc1)(C(=O)NO)S(C)(=O)=O [Example 220]			0.467	32 µg/mL		AB-3167 MIC [1, 11]: ≧64 mg/L; EC-1 MIC ([2]; Escherichia coli EC-1): 8 µg/mL; PA-7 MIC [5, 12]: 16 µg/mL
CC(=O)c1ccc(-c2ccc(CC[C@](C)(C(=O)NO)S(C)(=O)=O)cc2)nc1 [Example 189]	≧64 mg/L	16	0.711	16 µg/mL	4	
C[C@@](CCc1ccc(-c2cnc3cc[nH]c3c2)cc1)(C(=O)NO)S(C)(=O)=O [Example 211]			11.1	≧64 mg/L		AB-3167 MIC [1, 11]: ≧64 mg/L; EC-1 MIC ([2]; Escherichia coli EC-1): ≧64 mg/L; PA-7 MIC [5, 12]: 32 µg/mL
Cc1cc(-c2ccc(F)cc2)ccc1CCC(C)(C(=O)NO)S(C)(=O)=O (stereo not shown) [Example 157]	8 µg/mL	1	0.337	4 µg/mL	4	
CC1(O)CCN(C(=O)COc2ccc(-c3ccc(CC[C@](C)(C(=O)NO)S(C)(=O)=O)cc3)cc2)CC1 [Example 222]			0.841	≧64 mg/L		AB-3167 MIC [1, 11]: ≧64 mg/L; EC-1 MIC ([2]; Escherichia coli EC-1): 16 µg/mL; PA-7 MIC [5, 12]: 32 µg/mL
CC(CCc1ccc(-c2ccccc2)cc1F)(C(=O)NO)S(C)(=O)=O (stereo not shown) [Example 2, 4-(3-Fluorobiphenyl-4-yl)-N-hydroxy-2-methyl-2-(methylsulfonyl)butanamide]				4 µg/mL		MIC [1, 13]: 16 µg/mL (≈ 43.8 µM); MIC ([2]; read-out: EC-1: (MIC)): 1 µg/mL (≈ 2.74 µM); IC50 [3, 14]: 0.26 nM; MIC [5, 15]: 1 µg/mL (≈ 2.74 µM)
CC(=O)c1ccc(-c2ccc(CCC(C)(C(=O)NO)S(C)(=O)=O)c(F)c2)cn1 (stereo not shown) [Example 188]	≧64 mg/L	8	0.348	8 µg/mL	2	
Cc1nncn1-c1ccc(OCCOc2ccc(CCC(C)(C(=O)NO)S(C)(=O)=O)cc2)cc1 (stereo not shown) [Example 290, N-hydroxy-2-methyl-2-(methylsulfonyl)-4-(4-{2-[4-(3-methyl-4H-1,2,4-triazol-4-yl)phenoxy]ethoxy}phenyl)butanamide]				32 µg/mL		MIC ([1]; Table 3, read-out: AB-3167 MIC): ≥ 64 µg/mL; MIC ([2]; read-out: EC-1 MIC): 8 µg/mL (≈ 16.4 µM); IC50 [3, 10]: 3.56 nM; MIC ([5]; Table 3, read-out: PA-7 MIC): ≥ 64 µg/mL
CC(CCc1ccc(-c2ccc3c(c2)C(=O)NC3)c(F)c1)(C(=O)NO)S(C)(=O)=O (stereo not shown) [Example 203]			0.659	32 µg/mL		AB-3167 MIC [1, 11]: ≧64 mg/L; EC-1 MIC ([2]; Escherichia coli EC-1): 8 µg/mL; PA-7 MIC [5, 12]: 4 µg/mL
CC(CCc1ccc(-c2ccc(C#N)cc2)cc1F)(C(=O)NO)S(C)(=O)=O (stereo not shown) [Example 168]	≧64 mg/L	1	0.427	2 µg/mL	1	
CC(CCc1ccc(-c2ccc(CO)c(F)c2)cc1)(C(=O)NO)S(C)(=O)=O (stereo not shown) [Example 123]	≧64 mg/L	16	0.491	16 µg/mL	1	
CC(CCc1ccc(-c2ccc(CCCO)cc2)cc1)(C(=O)NO)S(C)(=O)=O (stereo not shown) [Example 47]	≧64 mg/L	0.5	0.132	2 µg/mL	1	
Cc1cccc(COc2ccc(CCC(C)(C(=O)NO)S(C)(=O)=O)cc2)c1 (stereo not shown) [Example 310, N-hydroxy-2-methyl-4-{4-[(3-methylbenzyl)oxy]phenyl}-2-(methylsulfonyl)butanamide]				8 µg/mL		MIC ([1]; Table 3, read-out: AB-3167 MIC): 16 µg/mL (≈ 40.9 µM); MIC ([2]; read-out: EC-1 MIC): 2 µg/mL (≈ 5.11 µM); IC50 [3, 10]: 0.883 nM; MIC ([5]; Table 3, read-out: PA-7 MIC): 4 µg/mL (≈ 10.2 µM)
